As a reminder, the IC50 is the concentration needed to halve the response being measured. By inhibition is commonly meant the share of the control response that was lost under treatment. Higher therefore signals a strong effect.

The source of these data is patent publication US20230074252A1, “DOSAGES AND METHODS FOR TREATING PULMONARY ARTERIAL HYPERTENSION WITH RODATRISTAT” (Altavant Sciences GmbH, priority 2020, published 2023).

What all share (assay): Direct and time-dependent CYP inhibition, pooled human liver microsomes
Type in all cases: in vitro ADME
What all share (set-up): from tissue; host or cells: pooled human liver microsomes (n=200 donors)
In general terms: Liver microsomes are vesicles of endoplasmic reticulum, rich in cytochrome P450 enzymes.

For data set [1], the target named is T1, CYP1A2 (Homo sapiens, UniProt P05177).
T1 sequence (P05177 1-516): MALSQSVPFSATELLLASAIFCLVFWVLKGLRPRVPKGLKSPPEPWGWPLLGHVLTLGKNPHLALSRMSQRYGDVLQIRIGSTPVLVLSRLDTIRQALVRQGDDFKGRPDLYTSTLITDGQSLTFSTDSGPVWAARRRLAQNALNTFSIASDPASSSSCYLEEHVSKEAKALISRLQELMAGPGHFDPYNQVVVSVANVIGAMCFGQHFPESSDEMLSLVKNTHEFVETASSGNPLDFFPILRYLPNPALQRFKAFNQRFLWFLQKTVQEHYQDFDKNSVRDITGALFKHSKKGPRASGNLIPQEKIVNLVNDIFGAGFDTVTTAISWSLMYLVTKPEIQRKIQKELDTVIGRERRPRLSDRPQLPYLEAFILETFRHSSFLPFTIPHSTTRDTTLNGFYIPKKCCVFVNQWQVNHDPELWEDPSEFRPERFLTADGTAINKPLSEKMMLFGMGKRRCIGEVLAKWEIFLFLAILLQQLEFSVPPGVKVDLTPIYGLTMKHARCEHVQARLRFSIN
On the procedure:
(§1) “mM^”=millimolar. CYP induction was evaluated using cultured human hepatocytes (from 3 donors) treated once daily for 3 days with RE/R concentrations to […].
(§2) The competitive inhibition of specific CYP isoforms was investigated for RVT-1201 and KAR5417 in human liver microsomes (HLM) (XT155056). Of the […] evaluated in vitro (CYP1A2, CYP2B6, CYP2C8, CYP2C9, CYP2D6, CYP3A4, CYP3A5), RVT-1201 IC50 estimates were determined for CYP2B6, CYP2C8 and CYP3A4 only. […] For each IC50 estimate, substrate concentration and Km were used to estimate RVT-1201 and KAR5417 Ki.

Data set [2] deals with T2, CYP2B6 (Homo sapiens, UniProt P20813).
T2 sequence (P20813 1-491): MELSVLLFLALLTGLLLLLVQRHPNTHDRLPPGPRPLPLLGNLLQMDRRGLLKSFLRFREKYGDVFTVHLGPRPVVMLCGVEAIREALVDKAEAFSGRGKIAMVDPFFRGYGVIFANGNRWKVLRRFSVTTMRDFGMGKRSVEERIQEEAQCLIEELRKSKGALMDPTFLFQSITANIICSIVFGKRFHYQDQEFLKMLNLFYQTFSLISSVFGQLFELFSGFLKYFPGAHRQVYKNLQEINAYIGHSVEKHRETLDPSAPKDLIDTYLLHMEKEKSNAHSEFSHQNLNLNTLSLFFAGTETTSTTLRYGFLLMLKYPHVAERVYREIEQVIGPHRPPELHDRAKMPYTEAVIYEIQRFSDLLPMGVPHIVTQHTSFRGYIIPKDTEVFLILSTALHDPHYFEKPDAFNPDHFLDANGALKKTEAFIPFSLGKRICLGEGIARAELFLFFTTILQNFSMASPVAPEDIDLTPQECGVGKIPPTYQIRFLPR
Particulars: for IC50: human liver microsomes, read-out: In vitro IC50, direct inhibition, CYP2B6. The method, then:
as §1, §2

Data set [3] deals with CYP2C19 (Homo sapiens, UniProt P33261). The method, then:
as §1, §2

In data set [4] the target is T3, CYP2C8 (Homo sapiens, UniProt P10632).
T3 sequence (P10632 1-490): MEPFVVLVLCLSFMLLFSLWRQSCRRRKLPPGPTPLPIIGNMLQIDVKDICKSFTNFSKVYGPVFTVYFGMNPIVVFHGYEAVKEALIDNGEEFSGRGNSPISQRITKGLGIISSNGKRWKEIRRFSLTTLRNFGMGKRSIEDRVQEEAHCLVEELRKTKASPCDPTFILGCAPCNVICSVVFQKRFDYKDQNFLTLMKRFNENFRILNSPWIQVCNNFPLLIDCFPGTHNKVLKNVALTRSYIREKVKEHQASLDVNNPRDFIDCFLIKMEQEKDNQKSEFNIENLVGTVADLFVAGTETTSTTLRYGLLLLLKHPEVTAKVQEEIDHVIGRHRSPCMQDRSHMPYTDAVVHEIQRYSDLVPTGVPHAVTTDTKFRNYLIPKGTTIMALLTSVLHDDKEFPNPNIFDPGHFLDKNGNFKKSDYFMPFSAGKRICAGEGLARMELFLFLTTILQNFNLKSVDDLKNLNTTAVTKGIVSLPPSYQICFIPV
Particulars: for IC50: human liver microsomes, read-out: In vitro IC50, direct inhibition, CYP2C8; for Calculated R1 Value, CYP2C8: predicted @ 600 mg BID, R1=1+(Imax,unbound/Ki). The method, then:
as §1, §2

Data set [5] deals with CYP2C9 (Homo sapiens, UniProt P11712). As to conditions: for IC50: human liver microsomes, read-out: In vitro IC50, direct inhibition, CYP2C9. The method, then:
as §1, §2

For data set [6], the target named is CYP2D6 (Homo sapiens, UniProt P10635). The method, then: as §1, §2
Chain of CYP2D6 (P10635 whole entry): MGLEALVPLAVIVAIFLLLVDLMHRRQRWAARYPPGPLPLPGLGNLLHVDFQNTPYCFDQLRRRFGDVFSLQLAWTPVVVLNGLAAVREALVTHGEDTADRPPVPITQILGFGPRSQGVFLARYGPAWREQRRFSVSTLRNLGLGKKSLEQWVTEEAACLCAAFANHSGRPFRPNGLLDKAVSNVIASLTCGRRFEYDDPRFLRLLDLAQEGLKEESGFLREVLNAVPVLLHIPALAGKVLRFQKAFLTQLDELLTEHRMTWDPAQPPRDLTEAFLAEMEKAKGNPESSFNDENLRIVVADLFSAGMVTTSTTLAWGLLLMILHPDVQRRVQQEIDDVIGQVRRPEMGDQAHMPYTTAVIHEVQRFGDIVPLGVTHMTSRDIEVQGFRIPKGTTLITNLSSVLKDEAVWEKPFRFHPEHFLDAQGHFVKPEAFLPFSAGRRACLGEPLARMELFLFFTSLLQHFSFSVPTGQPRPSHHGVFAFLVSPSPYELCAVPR
Setting [7] is: human, pooled human liver microsomes, 30 μM, range given across CYPs 2B6, 2C9 and 3A4/5.

Chain of CYP2C9 (P11712 whole entry): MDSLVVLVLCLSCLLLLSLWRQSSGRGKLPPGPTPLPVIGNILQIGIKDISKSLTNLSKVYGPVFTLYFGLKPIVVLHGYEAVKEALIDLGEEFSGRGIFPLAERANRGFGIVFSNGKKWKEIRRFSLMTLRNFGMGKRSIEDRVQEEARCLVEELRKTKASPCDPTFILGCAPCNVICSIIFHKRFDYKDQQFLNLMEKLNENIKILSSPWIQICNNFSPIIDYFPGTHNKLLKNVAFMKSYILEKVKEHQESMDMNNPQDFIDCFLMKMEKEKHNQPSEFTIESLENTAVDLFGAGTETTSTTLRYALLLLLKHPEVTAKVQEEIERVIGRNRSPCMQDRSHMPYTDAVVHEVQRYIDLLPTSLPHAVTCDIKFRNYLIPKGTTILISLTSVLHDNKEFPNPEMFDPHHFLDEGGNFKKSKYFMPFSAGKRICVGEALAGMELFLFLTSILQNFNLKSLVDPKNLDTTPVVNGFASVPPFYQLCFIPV
Chain of CYP2C19 (P33261 whole entry): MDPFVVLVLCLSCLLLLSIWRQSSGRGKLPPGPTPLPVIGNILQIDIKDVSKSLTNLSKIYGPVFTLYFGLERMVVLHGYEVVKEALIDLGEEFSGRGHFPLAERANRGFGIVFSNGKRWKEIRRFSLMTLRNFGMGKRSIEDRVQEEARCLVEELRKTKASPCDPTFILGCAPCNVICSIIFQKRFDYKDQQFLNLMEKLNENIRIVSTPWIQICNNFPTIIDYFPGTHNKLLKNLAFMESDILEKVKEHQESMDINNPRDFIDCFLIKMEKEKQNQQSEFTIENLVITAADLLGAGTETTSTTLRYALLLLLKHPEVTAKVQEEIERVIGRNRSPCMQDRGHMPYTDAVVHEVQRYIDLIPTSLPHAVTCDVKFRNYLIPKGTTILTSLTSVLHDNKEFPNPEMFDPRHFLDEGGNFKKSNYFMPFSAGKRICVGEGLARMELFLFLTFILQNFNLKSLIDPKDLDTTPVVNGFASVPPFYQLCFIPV

On to `CCOC(=O)[C@@H]1CC2(CCN(c3cc(O[C@H](c4ccc(Cl)cc4-c4ccccc4)C(F)(F)F)nc(N)n3)CC2)CN1` [Rodatristat ethyl, (S)-ethyl 8-(2-amino-6-((R)-1-(5-chloro-[1,1′-biphenyl]-2-yl)-2,2,2-trifluoroethoxy)pyrimidin-4-yl)-2,8-diazaspiro[4.5]decane-3-carboxylate], for which the IC50 in data set [1] (human liver microsomes, read-out: In vitro IC50, direct inhibition, CYP1A2) was more than 30 µM; in data set [2], 13 µM; in data set [3] (human liver microsomes, read-out: In vitro IC50, direct inhibition, CYP2C19) it was more than 30 µM; in data set [4], 2.8 µM; in data set [5] it was more than 30 µM; in data set [6] (human liver microsomes, read-out: In vitro IC50, direct inhibition, CYP2D6), more than 30 µM. In data set [2] (predicted @ 600 mg BID, R1=1+(Imax,unbound/Ki)), the “Calculated R1 Value, CYP2B6” value is less than 1.02. The “Calculated R1 Value, CYP2C8” value in data set [4] is less than 1.02. Besides, in data set [5], the “Direct inhibition of CYP2C9 (in words)” value was “Neither rodatristat ethyl nor rodatristat inhibit”.
Turning to `Nc1nc(O[C@H](c2ccc(Cl)cc2-c2ccccc2)C(F)(F)F)cc(N2CCC3(CC2)CN[C@H](C(=O)O)C3)n1` [Rodatristat, (S)-8-(2-amino-6-((R)-1-(5-chloro-[1,1′-biphenyl]-2-yl)-2,2,2-trifluoroeth-oxy)pyrimidin-4-yl)-2,8-diazaspiro[4.5]decane-3-carboxylic acid], the “Direct inhibition of CYP1A2 (in words)” value in data set [1] is recorded as “did not inhibit”. The IC50 in data set [2] was more than 30 µM; in data set [4], 2.8 µM; in data set [5], more than 30 µM. The inhibition at 30 µM in data set [2] (setting [7]) and in data set [5] (setting [7]) was 27 to 45% each time. Moreover, in data set [3], the “Direct inhibition of CYP2C19 (in words)” value is recorded as “did not inhibit”. The Ki in data set [4] (equivalent to IC50/2) amounted to 1.4 µM. Moreover, the “Calculated R1 Value, CYP2C8” value in data set [4] and in data set [4] (listed as rodatristat) was less than 1.02 each time. Also, the “Direct inhibition of CYP2C9 (in words)” value in data set [5] is recorded as “Neither rodatristat ethyl nor rodatristat inhibit”. In data set [6], the “Direct inhibition of CYP2D6 (in words)” value is “did not inhibit”.
